Test results published in US12637473B2, “MDM2 protein degraders” (THE REGENTS OF THE UNIVERSITY OF MICHIGAN, priority 2016, dated 2026).

Assays:
Assay type in all cases: cell-based
[1] = test system: RS4; 11 cells with stable shRNA knockdown of p53; assay: Cell growth inhibition by WST assay, p53 knockdown cells; parameters: LogIC50: unit not given here; conditions: RS4;11 sh p53, 4 days; for IC50: Homo sapiens, 96 h
Description: (§1) RS4; 11 cells with stable shRNA knockdown of p53 or those transfected shRNA control vector were treated with Cpd. A, Cpd. B, Cpd. No. 14, Cpd. No. 21, Cpd. No. 15, and Cpd. No. 22 for 4 days, with a cell concentration of ˜15,000/well. Cell growth inhibition was determined by WST assay. See Table 7 (p53) and Table 8 (control). Significant increases in IC50 of the Compounds of the Disclosure in the p53 knockdown RS4; 11 cells were observed compared with that in the sh control cells. […] The p53 knockdown efficiency was determined by western blot for p53 protein levels with or without treatment of Cpd. A (1 μM) for 2 hours.

[2] = test system: RS4; 11 cells transfected shRNA control vector; assay: Cell growth inhibition by WST assay, shRNA control cells; parameters: LogIC50: unit not given here; conditions: RS4;11 sh Control, 4 days; for IC50: Homo sapiens, 96 h
Description: as §1

MV4-11 cell line = assay: CellTiter-Glo Luminescent Cell Viability Assay, cell growth inhibition; conditions: Homo sapiens, 96 h, 4 days
Outline: (§2)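 Cells plated at 2,000/well with serially diluted compounds, incubated 4 days at 37° C, 5% CO2. Viability read by CellTiter-Glo luminescence after 10-20 min at room temperature; IC50 from dose-response fit.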

RS4; 11 cell line = assay: as above; conditions: Homo sapiens, 96 h, 4 days
Outline: as §2

IC50 (MV4-11 cell line) [nM]	IC50 (RS4; 11 cell line) [nM]	SMILES	other results
5.2	7.4	O=C1CCC(N2C(=O)c3cccc(NCCOCCNC(=O)c4ccc(NC(=O)[C@@H]5NC6(CCCCC6)[C@@]6(C(=O)Nc7cc(Cl)ccc76)[C@H]5c5cccc(Cl)c5F)cc4)c3C2=O)C(=O)N1 (stereo partly drawn) [Cpd. No. 13, (3′R,4'S,5′R)-6″-chloro-4′-(3-chloro-2-fluorophenyl)-N-(4-((2-(2-((2-(2,6-dioxopiperidin-3-yl)-1,3-dioxoisoindolin-4-yl)amino)ethoxy)ethyl)carbamoyl)phenyl)-2″-oxodispiro[cyclohexane-1,2′-pyrrolidine-3′,3″-indoline]-5′-carboxamide]	
2.7	4.7	O=C1CCC(N2C(=O)c3cccc(NCCOCCOCCOCCOCCOCCOCCOCCNC(=O)c4ccc(NC(=O)[C@@H]5NC6(CCCCC6)[C@@]6(C(=O)Nc7cc(Cl)ccc76)[C@H]5c5cccc(Cl)c5F)cc4)c3C2=O)C(=O)N1 (stereo partly drawn) [Cpd. No. 16, (3′R,4'S,5′R)-6″-chloro-4′-(3-chloro-2-fluorophenyl)-N-(4-((23-((2-(2,6-dioxopiperidin-3-yl)-1,3-dioxoisoindolin-4-yl)amino)-3,6,9,12,15,18,21-heptaoxatricosyl)carbamoyl)phenyl)-2″-oxodispiro[cyclohexane-1,2′-pyrrolidine-3′,3″-indoline]-5′-carboxamide]	
5.2	7.4	O=C1CCC(N2C(=O)c3cccc(NCCCOCCOCCOCCCNC(=O)c4ccc(NC(=O)[C@@H]5NC6(CCCCC6)[C@@]6(C(=O)Nc7cc(Cl)ccc76)[C@H]5c5cccc(Cl)c5F)cc4)c3C2=O)C(=O)N1 (stereo partly drawn) [Cpd. No. 18, (3′R,4'S,5′R)-6″-chloro-4′-(3-chloro-2-fluorophenyl)-N-(4-((3-(2-(2-(3-((2-(2,6-dioxopiperidin-3-yl)-1,3-dioxoisoindolin-4-yl)amino)propoxy)ethoxy)ethoxy)propyl)carbamoyl)phenyl)-2″-oxodispiro[cyclohexane-1,2′-pyrrolidine-3′,3″-indoline]-5′-carboxamide]	
2	4.4	O=C1CCC(N2Cc3c(NCCOCCOCCNC(=O)c4ccc(NC(=O)[C@@H]5NC6(CCCCC6)[C@@]6(C(=O)Nc7cc(Cl)ccc76)[C@H]5c5cccc(Cl)c5F)cc4)cccc3C2=O)C(=O)N1 (stereo partly drawn) [Cpd. No. 21, (3′R,4'S,5′R)-6″-chloro-4′-(3-chloro-2-fluorophenyl)-N-(4-((2-(2-(2-((2-(2,6-dioxopiperidin-3-yl)-1-oxoisoindolin-4-yl)amino)ethoxy)ethoxy)ethyl)carbamoyl)phenyl)-2″-oxodispiro[cyclohexane-1,2′-pyrrolidine-3′,3″-indoline]-5′-carboxamide]	IC50 [1]: 4160 nM; HiliSlope [1]: −0.4410; LogIC50 [1]: 0.6196; IC50 [2]: 13.1 nM; HiliSlope [2]: −1.448; LogIC50 [2]: −1.882
21	19	O=C1CCC(N2Cc3c(NCCOCCOCCOCCOCCNC(=O)c4ccc(NC(=O)[C@@H]5NC6(CCCCC6)[C@@]6(C(=O)Nc7cc(Cl)ccc76)[C@H]5c5cccc(Cl)c5F)cc4)cccc3C2=O)C(=O)N1 (stereo partly drawn) [Cpd. No. 23, (3′R,4'S,5′R)-6″-chloro-4′-(3-chloro-2-fluorophenyl)-N-(4-((14-((2-(2,6-dioxopiperidin-3-yl)-1-oxoisoindolin-4-yl)amino)-3,6,9,12-tetraoxatetradecyl)carbamoyl)phenyl)-2″-oxodispiro[cyclohexane-1,2′-pyrrolidine-3′,3″-indoline]-5′-carboxamide]	
20	20	CCN1[C@@H](C(=O)NC23CCC(C(=O)NCCCOCCOCCOCCCNC(=O)COc4cccc5c4C(=O)N(C4CCC(=O)NC4=O)C5=O)(CC2)CC3)[C@H](c2cccc(Cl)c2F)[C@]2(C(=O)Nc3cc(Cl)ccc32)C12CCCCC2 (stereo partly drawn) [Cpd. No. 46, (3′R,4'S,5′R)-6″-chloro-4′-(3-chloro-2-fluorophenyl)-N-(4-((1-((2-(2,6-dioxopiperidin-3-yl)-1,3-dioxoisoindolin-4-yl)oxy)-2-oxo-7,10,13-trioxa-3-azahexadecan-16-yl)carbamoyl)bicyclo[2.2.2]octan-1-yl)-1′-ethyl-2″-oxodispiro[cyclohexane-1,2′-pyrrolidine-3′,3″-indoline]-5′-carboxamide]	
130	190	CCN1[C@@H](C(=O)NC23CCC(C(=O)NCCOCCOCCOCCOCC(=O)N[C@H](C(=O)N4C[C@H](O)C[C@H]4C(=O)NCc4ccc(-c5scnc5C)cc4)C(C)(C)C)(CC2)CC3)[C@H](c2cccc(Cl)c2F)[C@]2(C(=O)Nc3cc(Cl)ccc32)C12CCCCC2 [Cpd. No. 48, (3′R,4'S,5′R)-6″-chloro-4′-(3-chloro-2-fluorophenyl)-1′-ethyl-N-(4-(((S)-16-((2S,4R)-4-hydroxy-2-((4-(4-methylthiazol-5-yl)benzyl)carbamoyl)pyrrolidine-1-carbonyl)-17,17-dimethyl-14-oxo-3,6,9,12-tetraoxa-15-azaoctadecyl)carbamoyl)bicyclo[2.2.2]octan-1-yl)-2″-oxodispiro[cyclohexane-1,2′-pyrrolidine-3′,3″-indoline]-5′-carboxamide]	

The next lines start with the molecule.

SMILES	IC50 (MV4-11 cell line) [nM]	IC50 (RS4; 11 cell line) [nM]	other results
COCCONC(=O)c1ccc(NC(=O)[C@@H]2NC3(CCCCC3)[C@@]3(C(=O)Nc4cc(Cl)ccc43)[C@H]2c2cccc(Cl)c2F)cc1 [Cpd. B, reference compound]			IC50 [1]: 5670 nM; HiliSlope [1]: −0.7973; LogIC50 [1]: 0.7537; IC50 [2]: 85.3 nM; HiliSlope [2]: −0.9620; LogIC50 [2]: −1.069
O=C1CCC(N2C(=O)c3cccc(NCCCCNC(=O)c4ccc(NC(=O)[C@@H]5NC6(CCCCC6)[C@@]6(C(=O)Nc7cc(Cl)ccc76)[C@H]5c5cccc(Cl)c5F)cc4)c3C2=O)C(=O)N1 (stereo partly drawn) [Cpd. No. 9, (3′R,4'S,5′R)-6″-chloro-4′-(3-chloro-2-fluorophenyl)-N-(4-((4-((2-(2,6-dioxopiperidin-3-yl)-1,3-dioxoisoindolin-4-yl)amino)butyl)carbamoyl)phenyl)-2″-oxodispiro[cyclohexane-1,2′-pyrrolidine-3′,3″-indoline]-5′-carboxamide]	163	10	
O=C1CCC(N2C(=O)c3cccc(NCCCCCCNC(=O)c4ccc(NC(=O)[C@@H]5NC6(CCCCC6)[C@@]6(C(=O)Nc7cc(Cl)ccc76)[C@H]5c5cccc(Cl)c5F)cc4)c3C2=O)C(=O)N1 (stereo partly drawn) [Cpd. No. 11, (3′R,4'S,5′R)-6″-chloro-4′-(3-chloro-2-fluorophenyl)-N-(4-((6-((2-(2,6-dioxopiperidin-3-yl)-1,3-dioxoisoindolin-4-yl)amino)hexyl)carbamoyl)phenyl)-2″-oxodispiro[cyclohexane-1,2′-pyrrolidine-3′,3″-indoline]-5′-carboxamide]	42	30	
O=C1CCC(N2C(=O)c3cccc(NCCCOCCCCOCCCNC(=O)c4ccc(NC(=O)[C@@H]5NC6(CCCCC6)[C@@]6(C(=O)Nc7cc(Cl)ccc76)[C@H]5c5cccc(Cl)c5F)cc4)c3C2=O)C(=O)N1 (stereo partly drawn) [Cpd. No. 17, (3′R,4'S,5′R)-6″-chloro-4′-(3-chloro-2-fluorophenyl)-N-(4-((3-(4-(3-((2-(2,6-dioxopiperidin-3-yl)-1,3-dioxoisoindolin-4-yl)amino)propoxy)butoxy)propyl)carbamoyl)phenyl)-2″-oxodispiro[cyclohexane-1,2′-pyrrolidine-3′,3″-indoline]-5′-carboxamide]	21	19	
O=C1CCC(N2Cc3c(NCCOCCNC(=O)c4ccc(NC(=O)[C@@H]5NC6(CCCCC6)[C@@]6(C(=O)Nc7cc(Cl)ccc76)[C@H]5c5cccc(Cl)c5F)cc4)cccc3C2=O)C(=O)N1 (stereo partly drawn) [Cpd. No. 20, (3′R,4'S,5′R)-6″-chloro-4′-(3-chloro-2-fluorophenyl)-N-(4-((2-(2-((2-(2,6-dioxopiperidin-3-yl)-1-oxoisoindolin-4-yl)amino)ethoxy)ethyl)carbamoyl)phenyl)-2″-oxodispiro[cyclohexane-1,2′-pyrrolidine-3′,3″-indoline]-5′-carboxamide]	7.6	8.5	
O=C1CCC(N2C(=O)c3cccc(NCCOCCOCCNC(=O)c4ccc(NC(=O)[C@@H]5NC6(CCCCC6)[C@@]6(C(=O)Nc7cc(Cl)ccc76)[C@H]5c5cccc(Cl)c5F)nc4)c3C2=O)C(=O)N1 (stereo partly drawn) [Cpd. No. 24, (3′R,4'S,5′R)-6″-chloro-4′-(3-chloro-2-fluorophenyl)-N-(5-((2-(2-(2-((2-(2,6-dioxopiperidin-3-yl)-1,3-dioxoisoindolin-4-yl)amino)ethoxy)ethoxy)ethyl)carbamoyl)pyridin-2-yl)-2″-oxodispiro[cyclohexane-1,2′-pyrrolidine-3′,3″-indoline]-5′-carboxamide]	5	7	
